This passage reports IC50 results from PubChem BioAssay AID651969 (The Scripps Research Institute Molecular Screening Center, 2013).

The source made the active and inactive calls. No rule for the calls is given here. Bounds are passed on as bounds.

One may read the IC50 as the concentration that gives 50% inhibition.

The test system of the assay is StAR promoter luciferase reporter cells, luminescence counterscreen. Kind of assay: nonselective StAR promoter luciferase inhibitors – cell-based, luminescence, luciferase reporter, counter-screen for LRH-1 inverse agonist project, dose response (AID 651969).

Consider `COc1ccc(NC(=O)COC(=O)c2cc(S(=O)(=O)N3CCCC3)ccc2O)cc1`, for which the IC50 is > 35.9 µM (inactive).
